In data set [1] the test system is Oryza sativa. As to the kind of experiment: Phytotoxicity against Oryza sativa cv. Kinuhikari (rice) planted at 3 cm depth measured after 20 to 25 days. The format is organism-based. As to conditions: in vivo.
Data set [2] relates to Echinochloa oryzicola. Description: Herbicidal activity against Echinochloa oryzicola under greenhouse condition compound treated at emergence stage measured after 14 to 20 days. The class given is functional.
The subject of data set [3] is Schoenoplectiella juncoides. Description: Herbicidal activity against Schoenoplectiella juncoides under greenhouse condition compound treated at 0.5 leaf stage measured after 14 to 20 days. The format is functional.
Data set [4] has as its system Echinochloa oryzicola. As to the kind of experiment: Herbicidal activity against Echinochloa oryzicola under greenhouse condition compound treated at 2.5 leaf stage measured after 14 to 20 days. The format is functional.
The test system of data set [5] is Echinochloa oryzicola. As to the kind of experiment: Herbicidal activity against Echinochloa oryzicola compound treated at 2.5-leaf stage measured after 26 days by outdoor concrete pot test. The class given is functional.
The test system of data set [6] is Elatine triandra. Description: Herbicidal activity against Elatine triandra compound treated at 1 to 2.2-leaf stage measured after 26 days by outdoor concrete pot test. The class given is functional.
Data set [7] deals with Schoenoplectiella juncoides. Description: Herbicidal activity against Schoenoplectiella juncoides compound treated at 0.5-leaf stage measured after 26 days by outdoor concrete pot test. The class given is functional.
For data set [8], the system named is Oryza sativa. Description: Phytotoxicity against Oryza sativa cv. Kinuhikari (rice) planted at 3 cm depth measured after 26 days. The format is organism-based. Particulars: in vivo, 624 h.
In data set [9] the test system is Pontederia vaginalis. As to the kind of experiment: Herbicidal activity against Monochoria vaginalis compound treated at 1.5-leaf stage measured after 26 days by outdoor concrete pot test. The class given is functional.
In data set [10] the test system is Rotala indica. Description: Herbicidal activity against Rotala indica compound treated at 1 to 2.2-leaf stage measured after 26 days by outdoor concrete pot test. The format is functional.
For data set [11], the system named is Echinochloa oryzicola. Description: Herbicidal activity against Echinochloa oryzicola compound treated at emergence stage measured after 26 days by outdoor concrete pot test. The class given is functional.
Data set [12] deals with Lindernia procumbens. Description: Herbicidal activity against Lindernia procumbens compound treated at 1 to 2.2-leaf stage measured after 26 days by outdoor concrete pot test. The class given is functional.
Data set [13] concerns Lindernia procumbens. As to the kind of experiment: Herbicidal activity against Lindernia procumbens at 300 g a.i/ha treated at 2.3-leaf stage measured after 26 days by outdoor concrete pot test. The class given is functional.
The test system of data set [14] is Rotala indica. As to the kind of experiment: Herbicidal activity against Rotala indica at 300 g a.i/ha treated at 2.3-leaf stage measured after 26 days by outdoor concrete pot test. The format is functional.
Data set [15] relates to Schoenoplectiella juncoides. Description: Herbicidal activity against Schoenoplectiella juncoides at 300 g a.i/ha treated at 1.6-leaf stage measured after 26 days by outdoor concrete pot test. The format is functional.
The test system of data set [16] is Pontederia vaginalis. Description: Herbicidal activity against Monochoria vaginalis at 300 g a.i/ha treated at 1.6-leaf stage measured after 26 days by outdoor concrete pot test. The class given is functional.
The test system of data set [17] is Schoenoplectiella juncoides. Description: Herbicidal activity against Schoenoplectiella juncoides at 300 g a.i/ha treated at 2.3-leaf stage measured after 26 days by outdoor concrete pot test. The format is functional.
In data set [18] the test system is Oryza sativa. As to the kind of experiment: Phytotoxicity against Oryza sativa cv. Kinuhikari (rice) at 300 g a.i/ha treated at 2.3-leaf stage measured after 26 days by outdoor concrete pot test. Particulars: in vivo, other, 624 h. The format is organism-based.
Data set [19] deals with Rotala indica. Description: Herbicidal activity against Rotala indica at 300 g a.i/ha treated at 1.6-leaf stage measured after 26 days by outdoor concrete pot test. The format is functional.
Data set [20] has as its system Echinochloa oryzicola. As to the kind of experiment: Herbicidal activity against Echinochloa oryzicola at 300 g a.i/ha treated at 2.3-leaf stage measured after 26 days by outdoor concrete pot test. The format is functional.
In data set [21] the test system is Pontederia vaginalis. Description: Herbicidal activity against Monochoria vaginalis at 300 g a.i/ha treated at 2.3-leaf stage measured after 26 days by outdoor concrete pot test. The class given is functional.
For data set [22], the system named is Elatine triandra. As to the kind of experiment: Herbicidal activity against Elatine triandra at 300 g a.i/ha treated at 1.6-leaf stage measured after 26 days by outdoor concrete pot test. The class given is functional.
Data set [23] deals with Elatine triandra. As to the kind of experiment: Herbicidal activity against Elatine triandra at 300 g a.i/ha treated at 2.3-leaf stage measured after 26 days by outdoor concrete pot test. The class given is functional.
The test system of data set [24] is Echinochloa oryzicola. As to the kind of experiment: Herbicidal activity against Echinochloa oryzicola at 300 g a.i/ha treated at 1.6-leaf stage measured after 26 days by outdoor concrete pot test. The format is functional.
The test system of data set [25] is Lindernia procumbens. Description: Herbicidal activity against Lindernia procumbens at 300 g a.i/ha treated at 1.6-leaf stage measured after 26 days by outdoor concrete pot test. The class given is functional.

Structures are written as SMILES.

`CN(C)C(=O)OC(c1cnccc1C(F)(F)F)c1cccc2c1OCO2` (stereo not given): in the data set with Oryza sativa [1], the ED20 worked out at 500 gAi/ha. Besides, the results for the ED80 (with Echinochloa oryzicola [2]; in [3]) were 63 gAi/ha and 250 gAi/ha, respectively.
Take `O=C(OC(c1cnccc1C(F)(F)F)c1cccc2ccccc12)n1ccnc1` (stereo not given): the ED80 in the data set with Echinochloa oryzicola [2] was more than 500 gAi/ha; in data set [3], more than 1000 gAi/ha.
As for `COc1ccncc1C(OC(=O)N(C)C)c1cccc2ccccc12` (stereo not given), the ED80 (in the data set with Echinochloa oryzicola [4]; in the data set on Echinochloa oryzicola [2]; in data set [3]) was more than 1000 gAi/ha throughout. In addition, in the data set on Oryza sativa [1], the ED20 is on record as more than 2000 gAi/ha.
Regarding `CN(C)C(=O)OC(c1cnccc1Br)c1cccc2ccccc12` (stereo not given), the ED80 with Echinochloa oryzicola [4] was found to be 250 gAi/ha; in the data set on Echinochloa oryzicola [2] it was 31 gAi/ha; in data set [3], 250 gAi/ha. In the data set on Oryza sativa [1], this compound gave an ED20 of 2000 gAi/ha.
With `CN(C)C(=O)OC(c1cnccc1C(F)(F)F)c1cccc2ccccc12` (single isomer, unassigned; (-)), the ED80 in the data set with Echinochloa oryzicola [5] was less than 63 gAi/ha; in the data set on Elatine triandra [6], less than 63 gAi/ha; in data set [7], 125 gAi/ha; in the data set on Pontederia vaginalis [9], less than 100 gAi/ha; with Rotala indica [10], less than 63 gAi/ha; in the data set with Echinochloa oryzicola [11], less than 31 gAi/ha. Besides, the ED80 in the data set on Lindernia procumbens [12] is given as less than 63 gAi/ha. Also, in the data set on Oryza sativa [8], the ED20 came out at 500 gAi/ha.
In the case of `CCN(CC)C(=O)n1cnc(S(=O)(=O)c2c(C)cc(C)cc2C)n1` [CAFENSTROLE], the Efficacy with Lindernia procumbens [13] was found to be 99%; in the data set on Rotala indica [14], 99%; in [15], 0%; with Pontederia vaginalis [16], 50%; in data set [17] it was 0%; in the data set with Oryza sativa [18] it was 0%. In addition, the Efficacy amounted to 100% in the data set with Rotala indica [19]; 95% with Echinochloa oryzicola [20]; 0% in the data set on Pontederia vaginalis [21]; 100% in the data set on Elatine triandra [22]; 99% in the data set with Elatine triandra [23]; 100% in the data set on Echinochloa oryzicola [24]. Also, in the data set with Lindernia procumbens [25], the Efficacy is reported as 100%.
Consider `CCN(CC)C(=O)OC(c1cnccc1C(F)(F)F)c1cccc2ccccc12` (stereo not given), for which the ED80 with Echinochloa oryzicola [4] came to 250 gAi/ha; in the data set on Echinochloa oryzicola [2] it was 31 gAi/ha; in data set [3], 1000 gAi/ha. This compound also returned an ED20 in the data set on Oryza sativa [1] of more than 2000 gAi/ha.
As to `CN(C)C(=O)OC(c1cnccc1C(F)(F)F)c1ccc2c3c(cccc13)CC2` (stereo not given), the ED80 in the data set on Echinochloa oryzicola [4] is more than 500 gAi/ha; in the data set with Echinochloa oryzicola [2] it was 500 gAi/ha; in [3] it was more than 1000 gAi/ha. This compound displayed an ED20 with Oryza sativa [1] of more than 2000 gAi/ha.
In the same order, the values of `CN(C)C(=O)OC(c1cnccc1C(F)(F)F)c1c(Cl)ccc2c1OCO2` (stereo not given) are 500 gAi/ha, 63 gAi/ha, 500 gAi/ha and more than 2000 gAi/ha.
As to `CNC(=O)OC(c1cnccc1C(F)(F)F)c1cccc2ccccc12` (stereo not given), the ED80 with Echinochloa oryzicola [4] was determined as 250 gAi/ha; in the data set on Echinochloa oryzicola [2] it was 63 gAi/ha; in data set [3], 500 gAi/ha. Further, in the data set with Oryza sativa [1], the ED20 turned out to be 2000 gAi/ha.
With `CN(C)C(=O)OC(c1cnccc1C#N)c1cccc2ccccc12` (stereo not given), the ED80 with Echinochloa oryzicola [4] is listed as 250 gAi/ha; with Echinochloa oryzicola [2], 63 gAi/ha; in data set [3], 250 gAi/ha. The same compound displayed an ED20 in the data set with Oryza sativa [1] of more than 1000 gAi/ha.
`CN(C)C(=O)OC(c1cnccc1C(F)(F)F)c1ccnc2ccccc12` (stereo not given): the ED20 in the data set on Oryza sativa [1] is recorded as 2000 gAi/ha. For the same compound, the values for the ED80 (with Echinochloa oryzicola [2]; in [3]) were 125 gAi/ha and 500 gAi/ha, respectively.
Consider `CN(C)C(=O)OC(c1cnccc1C(F)(F)F)c1cnccc1C(F)(F)F`, for which, in the data set on Oryza sativa [1], the ED20 is given as less than 250 gAi/ha. Moreover, the ED80 (in the data set on Echinochloa oryzicola [2]; in data set [3]) was 63 gAi/ha throughout.
`CN(C)C(=O)OC(c1cnccc1Cl)c1cccc2ccccc12` (stereo not given): the figures for the ED80 (in the data set on Echinochloa oryzicola [4]; with Echinochloa oryzicola [2]; in data set [3]) were more than 500 gAi/ha, 63 gAi/ha and 63 gAi/ha, respectively. The compound also gave an ED20 in the data set on Oryza sativa [1] of 1000 gAi/ha.
For `CN(C)C(=O)OC(c1cnccc1C(F)(F)F)c1cccc2ccccc12` (single isomer, unassigned; (+)), the ED80 in [7] is more than 500 gAi/ha; in the data set on Echinochloa oryzicola [11] it was 125 gAi/ha. The same compound gave an ED20 in the data set with Oryza sativa [8] of 1000 gAi/ha.
On to `Cc1ccncc1C(OC(=O)N(C)C)c1cccc2ccccc12` (stereo not given), for which the ED20 with Oryza sativa [1] is 2000 gAi/ha. Besides, the ED80 in the data set with Echinochloa oryzicola [2] was 500 gAi/ha; in [3] it was more than 1000 gAi/ha.

These data come from ChEMBL document CHEMBL3045041, “Synthesis of novel aryl(4-substituted pyridin-3-yl)methyl carbamates and their herbicidal activity” (J Pestic Sci, 2012).
